Measurements reported in patent US8128948B1, “Compositions and methods for attracting Anastrepha species” (The United States of America as represented by the …, priority 2007, dated 2012).

Experiments:
Format in all cases: physicochemical
[1] = Hydrolysis of the dehydration analog; details: for distribution of products (rel. % of loss; x±s; n=6): hydrolysis of the dehydration analog, 3 day, pH 5.5, 35° C.
[2] = Batch hydrolysis of suspensolide in aqueous buffers
Description: Buffers at 25° C. were transferred (1 mL) to 9-mm amber crimp-top (Teflon®-sealed) 2-mL GC vials. Suspensolide in anhydrous acetonitrile or methanol (50 μL) was added to afford initial aqueous concentrations of 0.9 mM and the solution was rapidly mixed for 10 s on a vortex Genie® mixer. Aqueous samples (10 μL) were removed with a 25-μL syringe and combined with 2 μL ACN containing 6 μg (+)-sclareolide as an external standard for HPLC.
GC was used to quantify lactones at the conclusion of each experiment. Hexane (1 mL), containing […] of tetradecane as an internal standard, was added to the vials and extractable analytes were removed from the water by rapidly mixing for 2 min on a vortex Genie® mixer. Emulsions were broken with NaCl, after which the hexane layer was transferred to vials for analysis by GC. The remaining solution was concentrated to dryness via Speed Vac® and dissolved in a methanolic solution of diazomethane. Extraction with pentane and subsequently H2O (0.5 mL each) yielded methyl esters amenable to GC within the organic phase. Initial suspensolide concentrations were measured (quadruplicate) via analogous introduction into 1 mL hexane+internal standard.

[3] = 1H-NMR monitored hydrolysis of suspensolide; details: 36 μL acetonitrile-d3 + 4 μl D2O; 27° C.
Description: Experiments were performed in a 2.0 mm capillary at 27° C. using a Bruker Avance 500 Console, Magnex 11.75 T/54 mm Magnet, and a 2.5 mm TXI probe (non spun). Spectra (64 scans) were acquired with 2.5 acquisition time and processed with ½ Hz line broadening.
Results and Discussion: Pentane extracts of male salivary glands that were added to water (pH 5.5) and rapidly stirred for 5 min at 25° C. yielded products within both phases that matched those obtained from pentane extraction of crops and oral secretions (FIG. 5). ^1H-Nuclear Magnetic Resonance (NMR) spectroscopy was then employed to directly observe the hydrolysis; the original vinyl and methyl proton signals disappeared over 3 h after a 4 μL addition of D2O to suspensolide in 36 μL acetonitrile-d3 (FIG. 6). In comparison, the loss of suspensolide in batch hydrolysis studies occurred much more rapidly (<2 min) over pH 3-10.

C=C[C@@]1(C)CCC[C@]2(C)OC(=O)C[C@@H]12 [anastrephin, reference compound]
distribution of products (rel. % of loss; x±s; n=6) [1]: 17.3±4.2%

C=CC1(C)CCCC(C)=C1CC(=O)O (stereo not shown) [dehydration analog, 2,6-dimethyl-6-vinyl-cyclohexeneacetic acid]
loss on hydrolysis ([1]; 3 day time course, pH 5.5 and 35° C.): ~15%

C=CC1(C)CCCC2(C)OC(=O)CC12 (stereo not shown) [epianastrephin, reference compound]
distribution of products (rel. % of loss; x±s; n=6) [1]: 1.7±1.2%

C/C1=C/COC(=O)C/C=C(/C)CCC1 [suspensolide, (3E,8E)-suspensolide]
level of 7a-epimer “cis-fused” equivalents among hydrolysis products ([2]; FIG. 4): < 5%
epianastrephin to anastrephin ratio of γ-hydroxy acids formed by hydrolysis ([2]; in 18OH2 at pH 5, FIG. 13): ~2.5
time for loss of suspensolide in batch hydrolysis ([2]; over pH 3-10): < 2 min
time for hydrolysis to product distribution III>II>>IV>>>I ([2]; pH 5-6 and 25° C.): < 2 min
epianastrephin to anastrephin product ratio of hydrolysis ([2]; pathways II and III, FIG. 4): ~2.5
time over which suspensolide was hydrolyzed (1H-NMR) [3]: ~3 h

C=CC1(C)CCCC2(C)OC(=O)CC12 (stereo not drawn) [“cis-fused” anastrephin]
distribution of products (rel. % of loss; x±s; n=6) [1]: 5.8±4.2%

C=CC1(C)CCCC2(C)OC(=O)CC12 (stereo not drawn) [“cis-fused” epianastrephin]
distribution of products (rel. % of loss; x±s; n=6) [1]: 1.1±0.5%

γ-hydroxy acid of anastrephin [anastrephin γ-hydroxy acid]
distribution of products (rel. % of loss; x±s; n=6) [1]: 38.6±5.1%

γ-hydroxy acid of epianastrephin [epianastrephin γ-hydroxy acid]
distribution of products (rel. % of loss; x±s; n=6) [1]: 3.6±2.3%
